Patent publication EP3821889A1, “METHODS FOR USING LOW-DOSE […] MYOCARIAL INFARCTION” (Institut de Cardiologie de Montréal, priority 2019, dated 2021)
“And” between values parts separate entries of the source, which are not always exact repeats. Equal entries are not always repeated. “Also recorded” adds a separate entry of the source.

Experiments:
[1] = CIRT; cited from earlier work
[2] = test system: patients with stable coronary disease; conditions: in vivo; cited from earlier work
[3] = test system: High-sensitivity C-reactive protein; conditions: in vivo
[4] = test system: patients recruited within 30 days after a myocardial infarction; conditions: in vivo
[5] = test system: patients recruited within 30 days after a myocardial infarction; conditions: human, in vivo
white-cell count = conditions: in vivo

CN(Cc1cnc2nc(N)nc(N)c2n1)c1ccc(C(=O)N[C@@H](CCC(=O)O)C(=O)O)cc1 [methotrexate]
cardiovascular outcomes and plasma markers of inflammation (in words) [1]: did not affect cardiovascular outcomes or plasma markers of inflammation

COc1cc2c(c(OC)c1OC)-c1ccc(OC)c(=O)cc1[C@@H](NC(C)=O)CC2 [Colchicine]
cardiovascular events (in words) [2]: fewer cardiovascular events
Hs-C reactive protein, 6 months, geometric mean (IQR) [3]: 1.37 (0.75, 2.13) mg/L
Hs-C reactive protein, Adjusted GM percent change (95% CI) [3]: -70.0% and -70.0 (-74.6, -64.5) %
Hs-C reactive protein, Placebo-adjusted GM percent change (95% CI) [3]: -10.1% and -10.1 (-28.6, 13.4) %
Hs-C reactive protein, Randomization, geometric mean (IQR) [3]: 4.27 (2.12, 7.22) mg/L
reduction in the C-reactive protein level [3]: > 65%
Anemia [4]: 14 (0.6) number of patients (percent)
Any serious adverse event [4]: 383 (16.4) number of patients (percent)
At least one gastrointestinal adverse event [4]: 17.5%
Diarrhea reported, % of the patients [4]: 9.7%
Gastrointestinal hemorrhage [4]: 7 (0.3) number of patients (percent)
Gastrointestinal serious adverse event [4]: 46 (2.0) number of patients (percent)
Hospitalization for heart failure [4]: 25 (1.1) number of patients (percent)
Infection as a serious adverse event, % of the patients [4]: 2.2%
Infection serious adverse event [4]: 51 (2.2) number of patients (percent)
Leukopenia [4]: 2 (0.1) number of patients (percent)
Nausea adverse event [4]: 43 (1.8) number of patients (percent)
Pneumonia reported as a serious adverse event, % of the patients [4]: 0.9%
Pneumonia serious adverse event [4]: 21 (0.9) number of patients (percent)
Septic shock serious adverse event [4]: 2 (0.1) number of patients (percent)
Thrombocytopenia [4]: 3 (0.1) number of patients (percent)
incidence of adverse events considered to be related to trial drug [4]: 16.0%
incidence of septic shock (in words) [4]: did not increase the incidence of septic shock
nausea, % of the patients [4]: 1.8%
overall incidence of serious adverse events [4]: 16.4%
serious adverse event of myopathy (in words) [4]: no serious adverse event of myopathy linked to colchicine
trial regimen discontinued, % of the patients [4]: 18.4%
Adjusted Hazard Ratio (95% CI), time to first primary endpoint [5]: 0.78 (0.62-0.98)
Death [5]: 43 (1.8) number (percent)
Death from cardiovascular causes [5]: 20 (0.8) number (percent)
Deep venous thrombosis or pulmonary embolus [5]: 10 (0.4) number (percent)
Hazard Ratio (95% CI), CV death [5]: 0.83 (0.45-1.53)
Hazard Ratio (95% CI), Death [5]: 0.98 (0.64–1.49)
Hazard Ratio (95% CI), Deep venous thrombosis or pulmonary embolus [5]: 1.43 (0.54–3.75)
Hazard Ratio (95% CI), MI [5]: 0.84 (0.62-1.14)
Hazard Ratio (95% CI), Resuscitated cardiac arrest [5]: 1.00 (0.29-3.46)
Hazard Ratio (95% CI), Stroke [5]: 0.26 (0.10-0.71)
Hazard Ratio (95% CI), Urgent hospitalization for angina requiring revascularization [5]: 0.47 (0.28-0.78)
Hazard Ratio (95% CI), WLW model, 1st Event [5]: 0.77 (0.61; 0.96)
Hazard Ratio (95% CI), WLW model, 2nd Event [5]: 0.73 (0.48; 1.11)
Hazard Ratio (95% CI), WLW model, 3rd Event [5]: 0.64 (0.37; 1.10)
Hazard Ratio (95% CI), WLW model, Average [5]: 0.77 (0.61; 0.96)
Hazard Ratio (95% CI), total primary endpoint events, Andersen-Gill model [5]: 0.69 (0.54; 0.88)
MI [5]: 77 (3.4%) no. (%)
Myocardial infarction [5]: 89 (3.8) number (percent)
Number of primary endpoint events per patient: 0 (number of patients) [5]: 2235
Number of primary endpoint events per patient: 1 (number of patients) [5]: 111
Number of primary endpoint events per patient: 2 (number of patients) [5]: 18
Number of primary endpoint events per patient: 3 (number of patients) [5]: 1
Number of primary endpoint events per patient: 4 (number of patients) [5]: 1
Primary endpoint [5]: 115(5.1%) no. (%)
Rate of primary endpoint events per 100 patient-months [5]: 0.29 per 100 patient-months
Secondary composite end point [5]: 111 (4.7) number (percent)
Total number of primary endpoint events [5]: 154
Urgent hospitalization for angina leading to revascularization [5]: 25 (1.1) number (percent)
Urgent hospitalization for angina requiring revascularization [5]: 22 (1.0%) no. (%)
ischemic cardiovascular events / primary composite efficacy end point compared with placebo (in words) [5]: significantly lower percentage of patients with ischemic cardiovascular events than placebo; also recorded: statistically significant lower risk of ischemic cardiovascular events than placebo
primary end point occurred in % of the patients [5]: 5.5% and 5.1%
secondary efficacy end point occurred in % of the patients [5]: 4.7%
Circulating lymphocytes, 12 months, geometric mean (IQR) (white-cell count): 1.83 (1.50, 2.44) 10^3/µL
Circulating lymphocytes, Adjusted GM percent change (95% CI) (white-cell count): 1.80 (-0.46, 4.11) %
Circulating lymphocytes, Placebo-adjusted GM percent change (95% CI) (white-cell count): 1.10 (-2.06, 4.36) %
Circulating lymphocytes, Randomization, geometric mean (IQR) (white-cell count): 1.79 (1.40, 2.40) 10^3/µL
Circulating neutrophils, 12 months, geometric mean (IQR) (white-cell count): 3.95 (3.27, 5.08) 10^3/µL
Circulating neutrophils, Adjusted GM percent change (95% CI) (white-cell count): -27.63 (-29.48, -25.73) %
Circulating neutrophils, Placebo-adjusted GM percent change (95% CI) (white-cell count): 0.45 (-3.28, 4.32) %
Circulating neutrophils, Randomization, geometric mean (IQR) (white-cell count): 5.45 (4.36, 7.15) 10^3/µL
Total white blood cell count, 12 months, geometric mean (IQR) (white-cell count): 6.95 (5.99, 8.30) 10^3/µL
Total white blood cell count, Adjusted GM percent change (95% CI) (white-cell count): -18.8% and -18.81 (-20.12, -17.47) %
Total white blood cell count, Placebo-adjusted GM percent change (95% CI) (white-cell count): 0.3% and 0.26 (-2.15, 2.72) %
Total white blood cell count, Randomization, geometric mean (IQR) (white-cell count): 8.54 (7.10, 10.40) 10^3/µL
